Source: patent US20080293646A1, “MACROLIDES” (Pfizer Inc, priority 2007, published 2008)
Values after ≈ are worked out from the molar mass of the structure shown. Structures can show the parent of a compound that is named as a salt. Where two headings read alike, the source gives them in different places.

Key:
S. pneumoniae ermB = assay: MIC, microtiter broth dilution, S. pneumoniae ermB isolates; format: cell-based, Streptococcus pneumoniae; conditions: for MIC50 / MIC90: Streptococcus pneumoniae
S. pneumoniae mefA = assay: MIC, microtiter broth dilution, S. pneumoniae mefA isolates; format: cell-based, Streptococcus pneumoniae; conditions: for MIC50 / MIC90: Streptococcus pneumoniae
S. pneumoniae emB/mefA = assay: MIC, microtiter broth dilution, S. pneumoniae ermB/mefA isolates; format: cell-based, Streptococcus pneumoniae; conditions: for MIC50 / MIC90: Streptococcus pneumoniae
S. pyogenes mefA = assay: MIC, microtiter broth dilution, S. pyogenes mefA isolates; format: cell-based, Streptococcus pyogenes; conditions: for MIC50 / MIC90: Streptococcus pyogenes
[1] = tested on: H. influenzae Telithromycin (susceptible); assay: MIC, microtiter broth dilution, telithromycin-susceptible H. influenzae; format: cell-based, Haemophilus influenzae; conditions: for MIC50 / MIC90: Haemophilus influenzae
[2] = tested on: H. influenzae Telithromycin (intermediate); assay: MIC, microtiter broth dilution, telithromycin-intermediate H. influenzae; format: cell-based, Haemophilus influenzae; conditions: for MIC50 / MIC90: Haemophilus influenzae
M. catarrhalis = assay: MIC, microtiter broth dilution, M. catarrhalis; format: cell-based, Moraxella catarrhalis; conditions: for MIC50 / MIC90: Moraxella catarrhalis
L. pneumophila = assay: microbe, parasite or virus in culture; format: cell-based, Legionella pneumophila; conditions: for MIC Range: L. pneumophila, n=10 isolates; for MIC50 / MIC90: Legionella pneumophila
[3] = HLM ER (human liver microsomes extraction ratio); format: in vitro ADME; conditions: 1 μM compound, NADPH, 37° C., <0.32 is lower limit of assay
Description: HLM ER: (human liver microsomes extraction ratio). This assay measures clearance of compound over time in the human liver microsome system due to NADPH-dependent oxidative metabolism. […] Assay Procedure: […] The reaction mixture was pre-incubated at 37° C. for 5 minutes before adding betanicotinamide adenine dinucleotide phosphate—reduced tetrasodium salt (NADPH) (1.0 mM). Aliquots of the incubation mixture were removed at 0, 5, 10, 20, 30 and 45 minutes. The aliquots were quenched in acetonitrile containing internal standard. Samples were centrifuged and the resulting supernatant analyzed by liquid chromatography/mass spectrometry (LC/MS/MS), with a Sciex API4000 using multiple reaction monitoring optimized for each test compound. […] The first order disappearance rate constant was determined for each incubation by plotting natural log(LN) substrate concentration (peak area ratio, drug/internal standard) against incubation time and determining the slope of the regression line (k), using data where an accurate first order decay curve could be obtained. Predicted hepatic clearances (CLH) and extraction ratios were calculated according to the following equations: […] where the following constants were: Liver Weight=21 g/kg [human] Microsomal Protein in Incubation=1.52 mg/mL Liver Protein=45 mg/g [human] Liver Blood Flow (QH)=20 mL/min/kg [human]

CYP3A = CYP3A (Homo sapiens, UniProt P08684); assay: CYP3A time-dependent inhibition in human liver microsomes (midazolam probe); conditions: pooled human liver microsomes, pH 7.4, probe midazolam (30 μM, 1'-hydroxymidazolam formation)
Sequence of CYP3A (P08684 2-503): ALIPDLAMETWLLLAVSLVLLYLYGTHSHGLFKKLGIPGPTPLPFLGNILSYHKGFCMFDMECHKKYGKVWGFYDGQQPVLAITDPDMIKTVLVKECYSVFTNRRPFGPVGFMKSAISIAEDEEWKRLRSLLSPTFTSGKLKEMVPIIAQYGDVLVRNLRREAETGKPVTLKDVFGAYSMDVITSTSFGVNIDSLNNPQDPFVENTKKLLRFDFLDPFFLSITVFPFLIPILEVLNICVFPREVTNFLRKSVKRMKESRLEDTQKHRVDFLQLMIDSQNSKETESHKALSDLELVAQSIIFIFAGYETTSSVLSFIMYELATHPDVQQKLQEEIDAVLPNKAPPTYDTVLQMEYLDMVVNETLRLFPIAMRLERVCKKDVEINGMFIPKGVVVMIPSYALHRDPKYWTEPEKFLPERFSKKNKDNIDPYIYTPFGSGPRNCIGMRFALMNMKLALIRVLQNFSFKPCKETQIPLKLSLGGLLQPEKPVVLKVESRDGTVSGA

[4] = S. pneumoniae ermB, n=34 isolates, read-out: MIC50
[5] = S. pneumoniae ermB, n=34 isolates, read-out: MIC90
[6] = S. pneumoniae mefA, n=39 isolates
[7] = S. pneumoniae mefA, n=39 isolates, read-out: MIC90
[8] = S. pneumoniae emB/mefA, n=45 isolates, read-out: MIC50
[9] = S. pneumoniae emB/mefA, n=45 isolates, read-out: MIC90
[10] = S. pyogenes mefA, n=23 isolates
[11] = S. pyogenes mefA, n=23 isolates, read-out: MIC50
[12] = S. pyogenes mefA, n=23 isolates, read-out: MIC90
[13] = H. influenzae telithromycin (susceptible), n=82 isolates
[14] = H. influenzae telithromycin (susceptible), n=82 isolates, read-out: MIC50
[15] = H. influenzae telithromycin (susceptible), n=82 isolates, read-out: MIC90
[16] = H. influenzae telithromycin (intermediate), n=12 isolates
[17] = H. influenzae telithromycin (intermediate), n=12 isolates, read-out: MIC50
[18] = H. influenzae telithromycin (intermediate), n=12 isolates, read-out: MIC90
[19] = M. catarrhalis, n=30 isolates, read-out: MIC90
[20] = S. pneumoniae ermB, n=34 isolates
[21] = S. pneumoniae emB/mefA, n=45 isolates

Row | SMILES | MIC50 (S. pneumoniae ermB; [4]) [µg/mL] | MIC90 (S. pneumoniae ermB; [5]) [µg/mL] | MIC Range (S. pneumoniae mefA; [6]) | MIC90 (S. pneumoniae mefA; [7]) [µg/mL] | MIC50 (S. pneumoniae emB/mefA; [8]) [µg/mL] | MIC90 (S. pneumoniae emB/mefA; [9]) [µg/mL] | MIC Range (S. pyogenes mefA; [10]) [µg/mL] | MIC50 (S. pyogenes mefA; [11]) [µg/mL] | MIC90 (S. pyogenes mefA; [12]) [µg/mL] | MIC Range [1, 13] [µg/mL] | MIC50 [1, 14] [µg/mL] | MIC90 [1, 15] [µg/mL] | MIC Range [2, 16] [µg/mL] | MIC50 [2, 17] [µg/mL] | MIC90 [2, 18] [µg/mL] | MIC Range (M. catarrhalis; M. catarrhalis, n=30 isolates) [ng/mL] | MIC90 (M. catarrhalis; [19]) [µg/mL] | MIC Range (L. pneumophila) [µg/mL] | MIC50 (L. pneumophila) [µg/mL] | MIC90 (L. pneumophila) [µg/mL] | further results
1 | CC[C@H]1OC(=O)[C@H](C)[C@@H](O[C@H]2C[C@@](C)(OC)[C@@H](O)[C@H](C)O2)[C@H](C)[C@@H](O[C@@H]2O[C@H](C)C[C@H](N(C)C)[C@H]2O)[C@](C)(O)C[C@@H](C)C(=O)[C@H](C)[C@@H](O)[C@]1(C)O [erythromycin] | > 64 | > 64 | 2 to 16 µg/mL | 16 (≈ 21.8 µM) | > 64 | > 64 | 8 to 32 | 8 (≈ 10.9 µM) | 16 (≈ 21.8 µM) | 1 to 16 | 8 (≈ 10.9 µM) | 16 (≈ 21.8 µM) | 8 to 16 | 16 (≈ 21.8 µM) | 16 (≈ 21.8 µM) | 30 to 1000 | 0.25 (≈ 0.341 µM) |  |  |  | MIC50 (S. pneumoniae mefA; S. pneumoniae mefA, n=39 isolates, read-out: MIC50): 8 µg/mL (≈ 10.9 µM); MIC50 (M. catarrhalis; M. catarrhalis, n=30 isolates, read-out: MIC50): 0.25 µg/mL (≈ 0.341 µM)
2 | CC[C@H]1OC(=O)[C@H](C)[C@@H](O[C@H]2C[C@@](C)(OC)[C@@H](O)[C@H](C)O2)[C@H](C)[C@@H](O[C@@H]2O[C@H](C)C[C@H](N(C)C)[C@H]2O)[C@](C)(O)C[C@@H](C)CN(C)[C@H](C)[C@@H](O)[C@]1(C)O [azithromycin] |  |  |  |  |  |  |  |  |  |  |  |  |  |  |  |  |  | 0.03 to 0.06 | 0.06 (≈ 0.0801 µM) | 0.06 (≈ 0.0801 µM) | 
3 | CC[C@H]1OC(=O)[C@H](C)C(=O)[C@H](C)[C@@H](O[C@@H]2O[C@H](C)C[C@H](N(C)C)[C@H]2O)[C@](C)(OC)C[C@@H](C)C(=O)[C@H](C)[C@H]2N(C3CN(Cc4c(O)cnc5cccnc45)C3)C(=O)O[C@]12C [Example 1, 3-Descladinosyl-11,12-dideoxy-6-O-methyl-3-oxo-12,11-(oxycarbonyl-(1-((3-hydroxy-[1,5]-naphthyridin-4-yl)methyl)-azetidin-3-yl)-imino)-erythromycin A Fumarate] |  |  | ≦0.06-1 μg/mL |  |  |  | 0.5 to 1 |  |  | 1 to 8 |  |  | 4 to 8 |  |  | 8 to 250 |  | 0.008 to 0.03 | 0.016 | 0.03 | MIC Range (S. pneumoniae ermB; [20]): ≦0.0625-2 μg/mL; MIC50 (S. pneumoniae ermB): ≤ 0.0625 µg/mL; MIC90 (S. pneumoniae ermB): 1 µg/mL; MIC50 (S. pneumoniae mefA): 0.125 µg/mL; MIC90 (S. pneumoniae mefA): 0.5 µg/mL; MIC Range (S. pneumoniae emB/mefA; [21]): ≦0.0625-1 μg/mL; MIC50 (S. pneumoniae emB/mefA): 0.5 µg/mL; MIC90 (S. pneumoniae emB/mefA): 1 µg/mL; MIC50 (S. pyogenes mefA): 0.5 µg/mL; MIC90 (S. pyogenes mefA): 1 µg/mL; MIC50 [1]: 2 µg/mL; MIC90 [1]: 4 µg/mL; MIC50 [2]: 4 µg/mL; MIC90 [2]: 8 µg/mL; MIC50 (M. catarrhalis): 0.03 µg/mL; MIC90 (M. catarrhalis): 0.06 µg/mL; HLM ER [3]: <0.32; Ki (CYP3A): 24 µM; kinact (CYP3A): 0.0004 s⁻¹
4 | CC[C@H]1OC(=O)[C@H](C)C(=O)[C@H](C)[C@@H](O[C@@H]2O[C@H](C)C[C@H](N(C)C)[C@H]2O)[C@](C)(OC)C[C@@H](C)C(=O)[C@H](C)[C@H]2N(CCCCn3cnc(-c4cccnc4)c3)C(=O)O[C@]12C [telithromycin] | ≤ 0.0625 | 0.5 (≈ 0.616 µM) | ≦0.06-0.5 μg/mL | 0.5 (≈ 0.616 µM) | 0.5 (≈ 0.616 µM) | 0.5 (≈ 0.616 µM) | 0.25 to 2 | 0.5 (≈ 0.616 µM) | 0.5 (≈ 0.616 µM) | 0.25 to 4 | 1 (≈ 1.23 µM) | 4 (≈ 4.93 µM) | 8 (≈ 9.85 µM) | 8 (≈ 9.85 µM) | 8 (≈ 9.85 µM) | 6 to 500 | 0.25 (≈ 0.308 µM) | 0.016 to 0.03 | 0.016 (≈ 0.0197 µM) | 0.016 (≈ 0.0197 µM) | MIC Range (S. pneumoniae ermB; [20]): ≦0.0625-1 μg/mL; MIC50 (S. pneumoniae mefA): 0.125 µg/mL (≈ 0.154 µM); MIC Range (S. pneumoniae emB/mefA; [21]): ≦0.0625-1 μg/mL; MIC50 (M. catarrhalis): 0.125 µg/mL (≈ 0.154 µM)
5 | CC1(C)S[C@@H]2[C@H](NC(=O)[C@H](N)c3ccc(O)cc3)C(=O)N2[C@H]1C(=O)O [amoxicillin] |  |  |  |  |  |  | 0.004 to 0.03 | 0.008 (≈ 0.0219 µM) | 0.016 (≈ 0.0438 µM) |  |  |  |  |  |  |  |  |  |  |  | 
